In a melting point compilation (Tetko et al.; mined from patent text by program, amines drawn as free bases though some values may be those of a salt) one finds melting point data, which are given here for 91 compounds.

The compound `CCCN(CCC)C(=O)CNc1cc(C)nc(-c2ccccc2)n1` displayed a melting point of 107 to 108 °C. The value for `N#Cc1ccc(Cn2cncn2)c(-c2ccc(OS(N)(=O)=O)c(Cl)c2)c1` was 139 to 142 °C.

Take `OCCc1noc(Cc2ccc(-c3ccccc3)cc2)n1`: the melting point was in the range of 94 to 95 °C.

Regarding `CCc1cccc2c3c([nH]c12)C(CC)(CC(=O)OC)OCC3O` (stereo unspecified), the melting point lay in the range of 117 to 118 °C.

Consider `Clc1ccccc1C(c1ccccc1)(c1ccccc1)n1cccn1`, for which the melting point was 135 °C.

The compound `CNC(=O)n1nc(Oc2c(Cl)cc(C(F)(F)F)cc2Cl)cc1C` returned a melting point of 113 to 114 °C.

`CCOC(=O)COc1ccc(NC(=O)c2csc(NC(=N)N)n2)cc1`: the melting point amounted to 206 °C. With `Cc1nc(-c2nn(Cc3ccccc3F)c3ccccc23)oc1CO` the figure was 144 °C; with `O=[N+]([O-])c1ccc(OCC(COc2ccc([N+](=O)[O-])cc2)(COc2ccc([N+](=O)[O-])cc2)COc2ccc([N+](=O)[O-])cc2)cc1`, 274 to 282 °C; with `CCOC(=O)c1c(N2CC3CC2CN3)c2cc(C)ccc2n(Cc2ccccc2)c1=O` (stereo unspecified), greater than 72 °C. The value for `CCCc1c(-c2ccc(C(=O)OC)cc2)oc2cc(NC(C)=O)ccc2c1=O` was 244 °C. Turning to `CCOC(=O)CCCn1cc(C(=O)c2ccc(OCc3ccc(C)cc3)c(O)c2)c2ccccc21`, the melting point lay within 125 to 127 °C.

`CC(=O)SCC(C)C(=O)Nc1cncc(C(=O)O)c1` (stereo unspecified): the melting point fell in the range of 154 to 158 °C. With `Nc1nc2c(sc(=O)n2CCCCO)c(=O)[nH]1` the figure was 258 to 260 °C. For `N#CC(C#N)=C1c2cc(N)c(Cl)cc2-c2cc(Cl)c(N)cc21`, the melting point is 336 to 338 °C. `COc1cc(N)c(Cl)cc1C(=O)N[C@@H]1CCN(CCCC(=O)N2CCCC2)C[C@H]1O` (relative stereo): the melting point worked out at 175 °C. The value for `COc1cccc(OC)c1-c1cc(C(=O)NC2(C(=O)O)C3CC4CC(C3)CC2C4)nn1-c1ccc(NC(=O)CCN2CCCCC2)cc1C` (stereo unspecified) was 240 °C; that for `COc1cccc(CCl)c1SCc1ccccc1` was 54 °C; that for `C=CC(C)C1CCC2C3CCC4=CC(O)CCC4(C)C3CCC12C` (stereo unspecified) was 121 to 123 °C. With `CNc1nc2c(c(N3CCN(C=O)CC3)n1)SCCC2` the figure was 149 to 151 °C. `CCCc1nn(CC)c(CO)c1Cc1ccc(-c2ccccc2NS(=O)(=O)C(F)(F)F)cc1` yielded a melting point of 59 to 64 °C. Turning to `CNC(=O)N(c1ccccc1)c1ccccc1`, the melting point was determined as 170 °C. The value for `O=Cc1ccc(Oc2ccc(F)cc2)cc1` was 69 to 73 °C; that for `Cc1cc(Sc2cc(C)c(O)c(C)c2)cc(C)c1O` was 142 °C; that for `CCCc1c(OCCCCC(=O)N(C)C)ccc(C(C)=O)c1O` was 95 to 97 °C. The value for `CCCCCCN1CN(C)C=C1C(=O)NCCCCCCOc1ccc(OC)cc1` was 35 to 36 °C; that for `CCOC(=O)c1cc(Cl)cc2c(=O)c(C)c(-c3ccccc3)oc12` was 127 to 128 °C; that for `CCOC(=O)C(O)=Cc1ncc(CCc2ccc(F)cc2)cn1` was 133 to 134 °C.

Take `CCn1nc(-c2ncc(NCc3ccc(OC)cc3)nc2-c2ccccc2)ccc1=O`: the melting point was 148 to 150 °C. The value for `O=[N+]([O-])c1ccc(Br)cc1-c1cc(-c2cccc(Br)c2)no1` was 179 to 180 °C; that for `Cc1cc(Br)cnc1CCCCc1cc(N)cc2c1C(N)=NS2(=O)=O` was 276 to 279 °C; that for `CCOC(=O)C1(C(=O)OCC)C(CC)C(=O)N1Cc1ccc(OC)cc1OC` (stereo unspecified) was 69 °C.

As to `N#Cc1ccc(NC(=O)NC(=O)c2c(F)cccc2F)c(Cl)c1Cl`, the melting point was 285 to 287 °C.

Compound `CCC(CC)C1CC1(CN)C(=O)O` (stereo unspecified) showed a melting point of 255 to 257 °C.

`Cc1cc(=O)n(-c2cccc(Cl)c2)c(=O)[nH]1`: the melting point was 250 to 252 °C. With `O=C(C1CCCCC1)C1CCN(C(=O)c2cc(O)c(O)cc2[N+](=O)[O-])CC1` the figure was 240 °C; with `CCc1ccc2[nH]c(C(=O)OCc3ccccc3)cc2c1`, 99 °C.

`CCc1c2nc(-c3cc(S(C)(=O)=O)ccc3OCC(C)C)[nH]c(=O)c2nn1CCN1CCOCC1` displayed a melting point of 268 to 273 °C.

The compound `CNc1ccc2c(c1)Sc1cc(NC)ccc1N2C(C)=O` registered a melting point of 137 °C. With `CCCCNc1nc2ccccc2n2ncc(C(=O)OCC)c12` the figure was 96 °C; with `CCOC(=O)C1CC2=C(CO1)C(=O)C(Cl)=CC2=O` (stereo unspecified), 83.5 °C; with `N#Cc1ncc(Cl)nc1Br`, 66 to 67 °C. With `COc1cc(OC)nc(OC(C(=O)O)C2CCc3ccccc32)n1` (stereo unspecified) the figure was 113 to 117 °C. The value for `CCc1c(C(=O)c2cc(C)cc(C)c2)n(CC=CC(=O)OC)c(=O)[nH]c1=O` was 201 to 202 °C; that for `COC(=O)c1ccc(NCC=Cc2ccccc2)cn1` was 131 to 133 °C. Take `CSc1ccc(Br)cn1`: the melting point was 39 to 40 °C.

`O=C1c2ccccc2C(=O)N1CCCCN1CCC(c2noc3cc(F)ccc23)CC1` yielded a melting point of 144 to 146 °C. Compound `CNS(=O)(=O)c1cc(O)ccc1OC(=O)c1ccccc1` registered a melting point of 168 to 170 °C.

`O=C1c2ccc(Cl)c3c(N4CCCC4)cc(Cl)c(c23)C(=O)N1O` came in with a melting point of 243 to 245 °C. With `CCOC(=O)CN1CCc2c(sc(N)c2C(=O)c2ccc(Cl)cc2)C1`, the melting point was 105 to 106 °C.

In turn, `COCCc1nc2c(N)nc3ccccc3c2n1CCOCCN(C)C(=O)C1CCCCC1` had a melting point of 52 to 57 °C. For the compound `COc1ccc(OC)c2c1CCC(O)(CC(=O)O)C2` (stereo unspecified), the melting point was in the range of 112 to 114 °C.

For the compound `CCCCCCc1cc2c(cc1C(=O)O)CCCCC2(C)C`, the melting point was in the range of 74 to 75 °C. The value for `O=C(C=Cc1cccc(Br)c1)c1cnc2sc3c(n12)CCCCC3` was 125 to 126 °C; that for `CCCc1cc(C(=O)OC)ccc1OCC(=O)CNc1cnn(C(C)C)c(=O)c1Cl` was 133 °C; that for `CCn1ncc2c1ncc1c(N)nc3cc(C)nn3c12` was 248 to 250 °C.

The compound `O=C(NCC1CC1)c1c(NC(=O)c2cc(C(F)(F)F)nn2-c2ncccc2Cl)ccc2cn[nH]c12` registered a melting point of 240 to 242 °C. The value for `CC1=CC(=O)C(N)=CC1=N` was 205 °C. With `CC(C)(C)n1ncc(C(=O)O)c1Cl` the figure was 132 to 134 °C; with `CC1(c2ccccc2)CN(C(=O)Nc2ccc(Cl)cc2)N=C1c1ccc(Cl)cc1` (stereo unspecified), 151 to 158 °C; with `CC1(C)OC(C=Cc2ccc(C(F)(F)F)cc2)=CC1=O`, 94 to 95 °C.

Consider `CC(=O)N1C(=O)C=CC1=O`, for which the melting point was found to be 58 °C.

`CCC(CC)c1ccc(Cl)c2nc3n(c12)CCCCN3c1ncc([N+](=O)[O-])cc1C` gave a melting point of 204 to 205 °C. `COC(=O)c1ccc(=O)n(CCNC(=O)c2cnccn2)c1` displayed a melting point of 195 to 197 °C. In the case of `O=C(O)CCCOc1cc(C(F)(F)F)cc(C(F)(F)F)c1`, the melting point lay in the range of 85 to 87 °C. With `COc1cc(CCl)ccc1C12CC3CC(CC(C3)C1)C2`, the melting point is 77 to 78 °C. With `N#CCCNC(=O)c1n[nH]cc1NC(=O)c1cc2ccccc2o1` the figure was 231 to 233 °C; with `O=C1c2ccccc2C(Cc2ccnc(F)c2)(Cc2ccnc(F)c2)c2cc(O)ccc21`, 219 to 221 °C; with `CCCc1[nH]c2ccc(OC)cc2c1C=O`, 166 to 168 °C. With `O=C1N=c2ccc(NCCCc3ccccc3)cc2=N1` the figure was 205 to 206 °C. The value for `COc1cc(Nc2nccc(Nc3ccc(OCc4ccccc4)cc3)n2)cc(OC)c1OC` was 161 to 164 °C; that for `N#CC(C#N)=CCOCCc1ccccc1` was 135 to 136 °C; that for `N#Cc1c(Cl)nc(Cl)nc1N1CCSCC1` was 180 °C. In turn, `CCOC(=O)C1CC(C)CCN1C(=O)c1ccc(Cl)c(C2(C)C(=O)N(Cc3ccc(OC)cc3OC)c3ccc(Cl)cc32)c1` (stereo unspecified) yielded a melting point of 106 °C. The value for `Cc1nc(N2CCN(Cc3ccc(C(F)(F)F)cc3)C2=O)sc1Br` was 107 to 108 °C; that for `CCC(=O)Nc1ccc(OC)c(=O)cc1` was 116 to 118 °C; that for `c1ccc(COc2cccc(OCc3ccccc3)c2OCc2ccccc2)cc1` was 67 to 68 °C. The value for `ClCCN1c2ccc(Cl)cc2C(c2ccsc2)=NCC1CCl` (stereo unspecified) was 115 to 116 °C. With `CC1CCCN(c2nc(S(C)(=O)=O)nc(Cl)c2-c2c(F)cc(F)cc2F)O1` (stereo unspecified) the figure was 160 to 162 °C; with `c1ccc(N2CCN(c3nc4c(c(NC5CCCCC5)n3)SCC4)CC2)cc1`, 174 to 175 °C; with `O=C1CCN(CCCN2c3cccc4cccc(c34)S2(=O)=O)CC1`, 108 °C. For `CCCCCc1ccc(OC(=O)c2ccc(O)cc2Cl)cc1`, the melting point lay within 149 to 151 °C. With `O=C(O)CN(Cc1ccc(OCc2ccc(F)cc2)cc1)C(=O)c1cn2cc(-c3ccc(Cl)cc3)ccc2n1` the figure was 206 °C; with `CCOC(=O)C(C)(C(=O)OCC)c1ccc(N)c(C(F)(F)F)c1`, 73 to 75 °C. The value for `CCCCCC(CC(=O)Nc1cc(CCCNC(N)=O)ccc1C(C)(C)C)c1ccc(OC)cc1OC` (stereo unspecified) was 125 °C; that for `Cc1ccc(-n2nc(C(C)(C)C)cc2NC(=O)NCc2ccccc2Oc2ccnc(N3CCN(C)CC3)n2)cc1` was 150 °C; that for `O=C1C(O)=C(c2ccc3ccccc3c2)C(=O)C(O)=C1c1ccc(Cl)cc1` was 302 to 303 °C.

In turn, `CC1(NC(=NC#N)Nc2cccnc2)CCC1` yielded a melting point of 210 to 212 °C. With `CC(C)(C)c1ccc(Nc2nnc(Cc3ccc(O)nc3)c3ccccc23)cc1` the figure was 134 to 135 °C.

`NC(=O)c1cnc2ccccc2c1`: the melting point lay within 132 to 138 °C. The value for `CNC(=S)n1nc(-c2ccc(Cl)nc2)nc1N` was 208 to 211 °C.
